The record followed here is US9453192B2, “High-acidity vinegar and method for producing the same” (priority 2012, dated 2016).

Like-named read-outs stand apart in the source and are kept apart here.

The subject of assay [1] is Acetobacter altoacetigenes MH-24 (FERM BP-491). The text has this:
(§1) The present invention relates to a method for producing a high-acidity vinegar having acidity of 10% to 25%, particularly 15% to 25% by brewing, i.e., acetic acid fermentation. In general, the acidity of vinegar means the concentration of acetic acid (w/v %) in the vinegar. The acidity referred to herein means the acetic acid concentration determined by conducting neutralization titration of the sample (vinegar) with phenolphthalein as an indicator and 1N sodium hydroxide aqueous solution in the manner known to persons skilled in the art.
(§2) A culture solution (2.5 L) containing acetic acid (8 w/v %), ethanol (2 v/v %), Acetozym DS+2 (product of FRINGS; 0.15 w/v %), and a variety of additives at given concentrations was introduced into a 5 L-volume jar fermenter. The total nitrogen content of the culture solution was 0.006 w/v %. Cryopreserved Acetobacter altoacetigenes MH-24 (FERM BP-491) was inoculated into the culture solution to start acetic acid fermentation. Submerged fermentation involving aeration stirring was adopted for the fermentation. Fermentation was conducted under the conditions of a temperature at 30° C., a rotative speed of 600 rpm, and an aeration volume of 0.15 vvm.
(§3) After the start of fermentation, 95% ethanol was fed to the fermentation liquid until the acidity (acetic acid concentration: w/v %) of the fermentation liquid exceeded 15% so as to maintain the ethanol concentration in the fermentation liquid at 1.5 to 3 v/v %. At the time point at which the acidity exceeded 15% (approximately 15.5%) and the ethanol concentration reached about 0.5 v/v %, the fermentation liquid was pulled out such that approximately half of the total fermentation liquid volume is remained.
After the portion of the fermentation liquid was pulled out, the above components were added again without discontinuation of aeration and stirring of the remaining fermentation liquid such that the volume of the fermentation liquid was adjusted to 2.5 L and the composition of the fermentation liquid became equivalent to the composition of the original culture solution. Then, fermentation was continued in the above manner. Thereafter the cycle, in which fermentation was conducted until the acidity exceeded 15% (approximately 15.5%), approximately half of the total volume of the fermentation liquid was pulled out and the above components were added again to restart fermentation with decreased acidity, is repeated to conduct semi-continuous fermentation. Seven times repeats of the cycle from the start of fermentation to re-introduction of the components was regarded as one examination. Six examinations were conducted with each different condition of additives. […]

Assay [2] has the same test system. The assay is described as follows: Semi-continuous acetic acid fermentation, culture solution with Acetozym DS+2 and additives (Example 1). As to conditions: for Final acidity: acidity when a portion of the fermentation liquid was pulled out; for Fermentation time: average time of one cycle (2nd to 7th cycles) until acidity exceeded 15%; for Productivity: rate of increase in acidity per hour. In kind it is cell-based.
Source text: as §1, §2, §3
After the portion of the fermentation liquid was pulled out, the above components were added again without discontinuation of aeration and stirring of the remaining fermentation liquid such that the volume of the fermentation liquid was adjusted to 2.5 L and the composition of the fermentation liquid became equivalent to the composition of the original culture solution. Then, fermentation was continued in the above manner. Thereafter the cycle, in which fermentation was conducted until the acidity exceeded 15% (approximately 15.5%), approximately half of the total volume of the fermentation liquid was pulled out and the above components were added again to restart fermentation with decreased acidity, is repeated to conduct semi-continuous fermentation. Seven times repeats of the cycle from the start of fermentation to re-introduction of the components was regarded as one examination. Six examinations were conducted with each different condition of additives. Table 1 summarizes the average time duration required for one cycle, i.e., from the restart of fermentation to the time point at which the acidity exceeded 15%, (the average time of 2nd to 7th cycles), final acidity (acidity when a portion of the fermentation liquid was pulled out), and productivity (the rate of increase in acidity per hour) with the types and amounts of additives.

[3] abbreviates: Glutathione 220 μM, 4 cycle repetitions.

In assay [1] (setting [3]), `N[C@@H](CCC(=O)N[C@@H](CS)C(=O)NCC(=O)O)C(=O)O` [Glutathione] registered a Fermentation time of 51.3 h and a Final acidity of 15.4%. In assay [1] (Glutathione 220 μM, 4 cycle repetitions, rate of increase in acidity per hour), this compound came in with a Productivity of 0.144 %/h. Moreover, the Effect on productivity result in assay [1] (Glutathione used as additive (220 μM), versus no additive) is on record as “productivity was significantly improved”.
In assay [2] (L-cystine 18 μM), `N[C@@H](CSSC[C@H](N)C(=O)O)C(=O)O` [L-cystine] came in with a Final acidity of 15.4%, a Fermentation time of 48.9 h and a Productivity of 0.151 %/h. Also, in assay [2] (L-cystine 45 μM), the Final acidity is 15.3%, the Fermentation time worked out at 41.7 h and the Productivity was 0.175 %/h. Also, in assay [2] (L-cystine 90 μM), the Final acidity turned out to be 15.3%, the Fermentation time turned out to be 37.5 h and the Productivity was found to be 0.195 %/h. Moreover, the “Effect on productivity as compared with Exam 1 (no additive)” value in assay [2] (L-cystine alone, 18 μM (Exam 2)) is “effect of improving productivity was confirmed”.
